According to PubChem BioAssay (NCI):
“And” between values parts separate entries of the source, which are not always exact repeats. Equal values may be shown once.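 Test compounds were applied to cells in 96-well plates for 48 hours at 5 doses. At the GI50, growth is halved. Definition used: TGI = concentration required for complete inhibition of growth.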

Key:
Test in all cases: DTP human tumour cell line panel, 48 h
A549 NSCLC = system: A549 NSCLC
COLO 205 colon = system: COLO 205 colon
HL-60(TB) leukemia = system: HL-60(TB) leukemia
HOP-92 NSCLC = system: HOP-92 NSCLC
K-562 leukemia = system: K-562 leukemia
NCI-H23 lung = system: NCI-H23 lung
OVCAR-8 ovarian = system: OVCAR-8 ovarian
UACC-257 melanoma = system: UACC-257 melanoma
PC-3 prostate = system: PC-3 prostate

Structure (SMILES)	TGI (A549 NSCLC)	TGI (COLO 205 colon)	TGI (HL-60(TB) leukemia)	TGI (HOP-92 NSCLC)	TGI (K-562 leukemia)	TGI (NCI-H23 lung)	TGI (OVCAR-8 ovarian)	TGI (UACC-257 melanoma)	GI50 (A549 NSCLC)	GI50 (COLO 205 colon)	GI50 (HL-60(TB) leukemia)	GI50 (K-562 leukemia)	GI50 (NCI-H23 lung)	GI50 (OVCAR-8 ovarian)	GI50 (UACC-257 melanoma)	GI50 (PC-3 prostate)	TGI (PC-3 prostate)	GI50 (HOP-92 NSCLC)
O=C(CCc1cc(-c2ccccc2)nc(=S)[nH]1)N(Cc1ccccc1)Cc1ccccc1	> 100 µM	> 100 µM	> 100 µM	> 100 µM	> 100 µM	> 100 µM	> 100 µM	> 100 µM										
CCCCCCCCn1ccc2cc(NC(=O)Cn3cc(CN4CCCC4)nn3)ccc21	3.63 µM	3.82 µM	3.8 µM		3.9 µM	3.8 µM	4.09 µM	3.57 µM	1.83 µM	1.99 µM	1.83 µM	1.91 µM	1.92 µM	2 µM	1.86 µM			
O=[N+]([O-])c1ccc(C=NC2CCCCC2)cc1	> 100 µM	> 100 µM	> 100 µM	> 100 µM	> 100 µM	> 100 µM	> 100 µM	> 100 µM										
Cc1ccc(C(=O)NC(C)C)cc1-c1ccc(C(=O)NCC2CC2)cc1	> 25 µM	> 25 µM	> 25 µM		> 25 µM	> 25 µM	> 25 µM	> 25 µM	> 25 µM	> 25 µM	> 25 µM	> 25 µM	> 25 µM	> 25 µM	> 25 µM	> 25 µM	> 25 µM	
NC12CC3CC(C1)CC(C(=O)O)(C3)C2	> 100 µM		> 100 µM	> 100 µM	> 100 µM	> 100 µM	> 100 µM	> 100 µM										
COc1ccc2c(c1)[n+](=O)c(C(=O)C/C(=N/OCCCc1ccccc1)C(=O)NC13CC4CC(CC(C4)C1)C3)c(C)n2[O-]	> 100 µM	> 100 µM	> 100 µM		> 100 µM	> 100 µM	> 100 µM	> 100 µM										
O=C(O)CCSC(=O)Nc1ccc([N+](=O)[O-])cc1	> 100 µM	> 100 µM	> 100 µM		> 100 µM	> 100 µM	> 100 µM	> 100 µM										
NC(=O)COC(=O)c1c(Cl)nc2sccn12	> 100 µM	> 100 µM	> 81.8 µM	> 100 µM	> 100 µM	> 100 µM	> 100 µM	> 100 µM										
N#C/C(=C\c1ccc2ccccc2c1)c1ccccc1		35.9 µM		> 100 µM		> 100 µM	96.7 µM	> 100 µM										
O=C(Nc1ccncc1)C(=O)c1cn(S(=O)(=O)c2cccc(F)c2)c2ccccc12	> 100 µM	> 100 µM	> 100 µM		> 100 µM	> 100 µM	> 100 µM	> 100 µM	13.2 µM	32.4 µM	3.36 µM	1.65 µM	2.43 µM	5.21 µM	13.5 µM	5.69 µM	> 100 µM	
CC[C@@]1(c2ccccc2)C2=C(CC(C)(C)CC2=O)Nc2[nH]ncc21	> 100 µM	> 100 µM		> 100 µM	> 100 µM	> 100 µM	> 100 µM	> 100 µM	> 100 µM	> 100 µM		> 100 µM	> 100 µM	> 100 µM	> 100 µM	> 100 µM	> 100 µM	> 100 µM
O=C1c2ccccc2C(=O)N1CCc1ncc[nH]1	> 100 µM	> 100 µM		> 100 µM	> 100 µM	> 100 µM	> 100 µM	> 100 µM									> 100 µM	
CC(=O)OCC1OC(NC(=S)N/N=C2\CC(c3ccccc3)Oc3ccccc32)C(OC(C)=O)C(OC(C)=O)C1OC(C)=O (configuration not stated)	> 100 µM	> 100 µM	> 100 µM	> 100 µM	> 100 µM	> 100 µM	> 100 µM	> 100 µM										
CC(SC(=S)N1CCOCC1)c1cc2oc(=O)n(C)c2cc1Cl (configuration not stated)	> 100 µM	> 100 µM	> 100 µM	> 10 µM	> 100 µM	> 100 µM	> 100 µM	> 100 µM										
C/C(O)=C(\N=O)C(=O)Nc1ccc(Cl)cc1Cl	> 100 µM	> 100 µM	> 100 µM	> 100 µM	> 100 µM	> 100 µM	> 100 µM	> 100 µM										
COc1ccc(NC(=O)CC(=O)N/N=C/c2ccc(N(CCC#N)S(C)(=O)=O)cc2)cc1	> 100 µM	> 100 µM			> 100 µM	> 100 µM	> 100 µM											
COc1cc(C(=O)CBr)c(OC)cc1C	> 100 µM	> 100 µM	> 100 µM		> 100 µM	> 100 µM	> 100 µM	> 100 µM									> 100 µM	
CC(C)(CO)N1CCN(C(=S)Nc2ccccc2)CC1	> 100 µM	> 100 µM		> 100 µM	99.5 µM	> 100 µM	> 100 µM	> 100 µM									> 100 µM	
Cc1c(C(=O)C/C(=N/NC(=O)C[N+](C)(C)C)C(=O)Nc2ccc(Cl)cc2)[n+](=O)c2ccccc2n1O	> 100 µM	> 100 µM	> 100 µM	> 100 µM	> 100 µM	> 100 µM	> 100 µM	> 100 µM										
O=C(O)C(CS)Nc1c2ccccc2nc2ccccc12 (configuration not stated)	> 100 µM	> 100 µM	> 100 µM	> 100 µM	> 100 µM	> 100 µM	> 100 µM	> 100 µM										
CC(=O)O[C@H]1C(=O)[C@@]2(C)C(C(OC(=O)c3ccccc3)[C@]3(O)CC(OC(=O)[C@H](OC(=O)CCC(=O)O)C(NC(=O)c4ccccc4)c4ccccc4)C(C)=C1C3(C)C)C1(OC(C)=O)COC1C[C@@H]2O (some centres not stated)	> 100 µM	< 0.0142 µM and 0.04 µM	< 0.0136 µM	> 78.8 µM and 91.8 µM		> 100 µM	> 100 µM	> 100 µM						0.0159 µM and 0.038 µM	< 0.01 µM and 0.0295 µM		0.0512 µM	
CCCC1N2CCCCC2[C@@H]2c3[nH]c4ccccc4c3CCN12 (some centres not stated)	> 100 µM	> 100 µM	> 100 µM	> 100 µM	> 100 µM	> 100 µM	> 100 µM	> 100 µM										
O=C(CC1(O)C(=O)Nc2c(Cl)ccc(Cl)c21)c1ccc(F)cc1 (configuration not stated)	> 100 µM	> 100 µM	58.2 µM	82.8 µM	> 100 µM	60.6 µM	> 100 µM	> 100 µM										
